Patent publication US10537610B1, “Peptide for inhibition of cancer” (priority 2018, dated 2020)

Legend:
[1] = tested on: JAM-A; test: Western blot of JAM-A protein in HMEC-1 cells; assay type: cell-based, human; settings: Tβ4 200 nM or TGF-β1 10 ng/mL, 24-hours incubation
Description: The cells were lysed with lysis buffer (1% Triton X-100 and 0.1% SDS in PBS) supplemented with Halt Protease Inhibitor Cocktail (Thermo Scientific, Waltham, Mass., USA). For the equalization between the samples before the semi-quantitative analyses the protein content of lysates was determined with the BCA Protein Assay Kit according to the manufacturer's protocol (Thermo Scientific). Cell lysate aliquots at a protein content of 50 μg per sample were boiled with 5× concentrated loading buffer (final concentrations: 50 mM Tris-HCl, pH 6.8, 8% glycerol, 2% SDS, 5% β-mercaptoethanol, 0.002% bromophenol blue), separated under reducing conditions on 4-20% gradient SDS-PAGE gels (Bio-Rad) and electroblotted (120 min, 200 mA, 4° C.) onto polyvinylidene difluoride (PVDF) membranes (Bio-Rad). The membranes were washed with Tris-buffered saline (TBS) and blocked for 2 hours with TBS containing 5% nonfat dry milk at room temperature. Then, the membranes were incubated overnight at 4° C. with an appropriate amount of primary antibody diluted in TBS containing 0.05% Tween 20 (TBST). The following primary antibodies were used: monoclonal rabbit anti-JAM-A (Abcam, Cambridge, UK) at a dilution of 1:500 and monoclonal mouse anti-GAPDH (R&D Systems, Minneapolis, Minn., USA) at a dilution of 1:1000. The membranes were washed several times with TBST and incubated for 1 hour at room temperature with the corresponding polyclonal anti-rabbit and anti-mouse HRP-conjugated secondary antibodies (Santa Cruz Biotechnology, Dallas, Tex., USA) at a 1:5000 dilution in TBST. Following the subsequent washes with TBST the membranes were further processed for chemiluminescent detection using Westar TiC ECL Substrate (Cyanagen, Bologna, Italy) and the images were documented by ChemiDoc MP Imager (Bio-Rad).

[2] = tested on: soluble JAM-A; test: ELISA of JAM-A antigen in plasma, murine 4T1 breast cancer model; assay type: in vivo, mouse; settings: 4T1 tumor-bearing BALB/c mice and control littermates; Tβ4 15 μg/kg or TGF-β1 5 μg/kg i.p., 21 days
Description: All in vivo experiments were carried on female BALB/c mice aged 8 to 12 weeks purchased from Animal House of Institute of Biology, University of Bialystok (Bialystok, Poland). The mice were housed under standard conditions at the Animal House of the Medical University of Lodz (Lodz, Poland). All animal procedures and protocols were conducted in accordance with the Guide for the Care and Use of Laboratory Animals of the National Animal Care Committee and were approved by Local Ethical Committee for Animal Research in Lodz (license number 9/LB51/2017 from Jun. 2, 2017). All efforts were made to minimize animal suffering.
Murine 4T1 cells were purchased from the American Type Culture Collection (ATCC, Manassas, Va., USA). The cells were maintained in RPMI-1640 (ATCC) with 10/o fetal bovine serum (FBS) and cultured in tissue culture flasks to 80% confluence. […]
The unbound biotinylated antibody was washed away and HRP-conjugated streptavidin was added to the wells. […] Regarding the both protocols, the enzyme-substrate (HRP-TMB) reaction was terminated by the addition of a sulfuric acid solution and the color change was measured spectrophotometrically at a wavelenght of 450 nm using the Wallac 1420 VICTOR2 Multilabel Counter (PerkinElmer). The concentration of target antigen in the samples was determined by comparing the optical density of the samples to the standard curve.

[3] = tested on: JAM-A mRNA; test: RT-PCR of JAM-A mRNA in HMEC-1 cells; assay type: cell-based, human; settings: Tβ4 200 nM or TGF-β1 10 ng/mL
[4] = tested on: JAM-A (CD321); test: Flow cytometry of JAM-A (CD321) on the surface of HMEC-1 cells; assay type: cell-based, human; settings: Tβ4 200 nM, TGF-β1 10 ng/ml or TNF-α 10 ng/mL, 24 hours
Excerpt: For the detection of JAM-A surface expression the cells were labeled with FITC anti-human CD321 (F11R) Mouse IgG1 Antibody (BioLegend, San Diego, Calif., USA) or with the FITC Mouse IgG1 Isotype Control Antibody (BioLegend) for the negative control. Labeled cells were washed to remove unbound antibodies, harvested with ice cold EDTA/PBS, fixed with BD CellFix (Becton Dickinson. Franklin Lakes, N.J., USA) and subsequently analyzed by FACS Canto II flow cytometer (Becton Dickinson). Upon excitation at 488 nm with an argon laser the emission of the fluorescence was recorded through selective band pass filter at 517 nm. Data were recorded with DIVA software, version 6.0 (Becton Dickinson) and subsequently analyzed using FCSalyzer software, version 0.9.14-alpha (https://sourceforge.net/projects/fcsalyzer/).

Substance | level of JAM-A protein [1] | JAM-A level in plasma [2] | JAM-A expression on mRNA level [3] | JAM-A (CD321) level on the cell surface [4]
Transforming growth factor-β1 [TGF-β1] | evidently reduced the level of JAM-A protein | decreased the JAM-A plasma level | no observed changes of JAM-A expression on mRNA level | slightly decreased JAM-A level on the membrane of HMEC-1 cells
tumor necrosis factor-α [TNF-α] | – | – | – | triggered a minor increase of CD321 expression
